The test system of data set [1] is Leishmania donovani promastigotes (Bob strain). It is filed as cell-based. The conditions noted are these: 4 h; for Reduction of promastigote viability: at 3 μM, MTT, vs untreated cells. Here is the method: Promastigotes of bob L. donovani were harvested in the log phase, and parasite inhibition was determined through 3‐(4,5‐dimethylthiazol‐2‐yl)‐2,5‐diphenyl‐tetrazolium bromide (MTT) methods using twofold dilution techniques. Briefly, promastigote density of 2 × 10^6 cells was taken, and different peptoid dilutions were added (0.187–3 μM) in a total volume of 100 μL. Percentage parasite viability was evaluated at 4 h at 25 °C using MTT (Sigma‐Aldrich). Parasite viability rate (%) = [OD of test sample/OD of untreated sample] × 100.
All experiments were carried out in triplicate and repeated at least three times independently (biological replicates), and the figures shown are representative of these experiments. IC50 was calculated using GRAPHPAD PRISM 6.0 software. The data were analyzed using Student's t‐test for comparison of two groups, and data values were expressed as mean ± standard deviation (SD). Significant differences were determined and designated with asterisks as follows: *P < 0.05; **P < 0.01; ***P < 0.001; and ****P < 0.0001.
Fig. 1 Antileishmanial activity of peptoids against Leishmania donovani promastigotes. Early‐logarithmic‐phase promastigotes of L. donovani bob strain were treated with different peptoids at different concentrations (0–3 μM) for 4 h. Negative control was considered 100% of cell viability (untreated) and positive control (Triton X treated). Cellular viability was assessed by MTT assay, and the IC50 values were calculated using GRAPHPAD PRISM 6.0. Error bars represent SD N = 3 and n = 3.

Data set [2] relates to Leishmania donovani intracellular amastigotes. Kind of data set: Intracellular amastigote clearance in infected RAW 264.7 macrophages (Giemsa staining, microscopy). Type of data set: cell-based. The arrangement: key to Effect on intracellular amastigotes: *: Good; **: Better; ***: Best. Particulars: 10 μM peptoid, infected RAW 264.7 cells; for Effect on intracellular amastigotes by Giemsa staining (number, size, count): vs untreated control, 24 h or 4 h; for Effect on intracellular amastigotes: Giemsa staining, grade. The protocol:
To evaluate the inhibitory effect of different peptoids on intracellular amastigotes, RAW 264.7 cells were infected with logarithmic phase promastigotes. Briefly, RAW 264.7 cells (10^5 cells/well) were seeded in 24‐well plates with round sterile coverslips and allowed to adhere to the coverslip for 24 h at 37 °C at 5% CO2 DMEM media supplemented with 10% FBS. Adherent macrophages were infected with L. donovani promastigotes at 1 : 10 (macrophage: promastigotes) for 6 h. Co‐infected cells were washed with PBS three times and incubated for a further 24 h for infection establishment. After 24 h, media were removed and again washed with FBS‐free DMEM followed by peptoid treatment. Ten μM of different peptoids were added to the co‐infected cells and incubated for 4 h at 37 °C at 5% CO2. After 4 h, peptoid‐treated co‐infected cells were washed with PBS, fixed with 100% methanol, and stained with diluted Giemsa stain (1 : 10) (HiMedia, Mumbai, India). The parasite clearance status of peptoids was determined by counting the number of the parasites using the Leica LAS core microscope system by counting 100 cells per coverslip.
Fig. 2 Giemsa staining of intracellular amastigotes in macrophage 264.7 cells after treatment with different peptoids at 10 μM concentrations. Untreated amastigotes (A), sample treated with TM 1 (B), TM 2 (C), TM 3 (D), TM 4 (E), TM 5 (F), TM 7 (G), TM 9 (H), and TM 10 (I). Red arrow points to the amastigotes form of Leishmania donovani parasite. Scale bar represents […].

For another data set, the system named is RAW 264.7 cells. Kind of data set: Cytotoxicity against RAW 264.7 cells (MTT). It is filed as cell-based, murine. The conditions noted are these: for Host cell viability: 20 µM. The protocol: The cytotoxicity of different peptoids against RAW 264.7 cells was assessed by the MTT method following a published protocol. Briefly, murine macrophages were seeded in a 96‐well plate using DMEM supplemented with 10% FBS maintained at 37 °C and 5% CO2 for 24 h. Next, different concentrations of peptoids (5–80 μM) were added and incubated for 24 h followed by the addition of MTT for 2 h and solubilization of formazene crystals with DMSO addition. Percentage cell viability was calculated relative to the peptoid untreated sample.
Fig. 6 Percentage of living RAW 264.7 cells after incubation with different concentrations of peptoids. RAW 264.7 macrophage cells were incubated with peptoid for 24 h. […] The working concentration of 10 μM of peptoids caused only 50% or lower cytotoxicity in RAW 264.7 cells. Cell viability was determined by MTT assay, and data based on three experiments are represented by mean ± SD.

“And” between values parts separate entries of the source, which are not always exact repeats. Equal values may be shown once. “Also recorded” adds a separate entry of the source. Square brackets hold non-standard residues; d marks the D form. Peptide text beside a SMILES is read from it. Nspe(4-Br) = C[C@H](NCC(=O)O)c1ccc(Br)cc1; N(tridecyl)Gly = CCCCCCCCCCCCCNCC(=O)O; Nspe = C[C@H](NCC(=O)O)c1ccccc1; Nlys = NCCCCNCC(=O)O

`C[C@@H](c1ccccc1)N(CC(N)=O)C(=O)CN(C(=O)CN(CCCCN)C(=O)CN(C(=O)CN(C(=O)CN(CCCCN)C(=O)CN(C(=O)CN(C(=O)CN(CCCCN)C(=O)CN(C(=O)CN(C(=O)CNCCCCN)[C@@H](C)c1ccccc1)[C@@H](C)c1ccccc1)[C@@H](C)c1ccccc1)[C@@H](C)c1ccccc1)[C@@H](C)c1ccccc1)[C@@H](C)c1ccccc1)[C@@H](C)c1ccccc1` [TM1] (H-[Nlys][Nspe][Nspe][Nlys][Nspe][Nspe][Nlys][Nspe][Nspe][Nlys][Nspe][Nspe]-NH2): the “Reduction of promastigote viability” value in data set [1] is on record as at least 50%. Further, in data set [2], the “Effect on intracellular amastigotes by Giemsa staining (number, size, count)” value (from here on “Effect … (number, size, count)”) is “reduction in number and size of amastigotes; also recorded: reduces the amastigote count”; the “Effect on intracellular amastigotes” value is “***”. The “Reduction in host cell viability” value in the data set with RAW 264.7 cells (RAW 264.7 cells, 10 μM, 24 h, MTT) was ~ 40% and 40%.

Turning to `C[C@@H](c1ccc(Br)cc1)N(CC(N)=O)C(=O)CN(C(=O)CN(CCCCN)C(=O)CN(C(=O)CN(C(=O)CNCCCCN)[C@@H](C)c1ccccc1)[C@@H](C)c1ccc(Br)cc1)[C@@H](C)c1ccccc1` [TM2] (H-[Nlys][Nspe][Nspe(4-Br)][Nlys][Nspe][Nspe(4-Br)]-NH2), in data set [1], 1400 nM corresponded to half-maximal inhibition (IC50) and the “Reduction of promastigote viability” value is reported as at least 50%. In addition, the “Effect on intracellular amastigotes” value in data set [2] is “*”. Besides, the Host cell viability result with RAW 264.7 cells was “more than 50%”.

In the case of `C[C@@H](c1ccc(Br)cc1)N(CC(N)=O)C(=O)CN(C(=O)CN(CCCCN)C(=O)CN(C(=O)CN(C(=O)CNCCCCN)[C@@H](C)c1ccccc1)[C@@H](C)c1ccccc1)[C@@H](C)c1ccccc1` [TM3] (H-[Nlys][Nspe][Nspe][Nlys][Nspe][Nspe(4-Br)]-NH2), the IC50 (usually the concentration that gives 50% inhibition) in data set [1] was 4600 nM. Further, the “Effect on intracellular amastigotes” value in data set [2] is recorded as “*”. The Host cell viability entry in the data set with RAW 264.7 cells was “no toxicity”.

Take `C[C@@H](c1ccccc1)N(CC(N)=O)C(=O)CN(C(=O)CN(CCCCN)C(=O)CN(C(=O)CN(C(=O)CNCCCCN)[C@@H](C)c1ccccc1)[C@@H](C)c1ccccc1)[C@@H](C)c1ccccc1` [TM7] (H-[Nlys][Nspe][Nspe][Nlys][Nspe][Nspe]-NH2): in data set [1], it took 3030 nM to reach half-maximal inhibition (IC50) and the “Reduction of promastigote viability” value is at least 50%. Further, in data set [2], the “Effect … (number, size, count)” value is “reduction in number and size of amastigotes; also recorded: significantly reduced their count”; the “Effect on intracellular amastigotes” value is on record as “**”. Also, the Host cell viability entry in the data set on RAW 264.7 cells is “no toxicity”.

The compound `CCCCCCCCCCCCCNCC(=O)N(CCCCN)CC(=O)N(CC(=O)N(CC(=O)N(CCCCN)CC(=O)N(CC(=O)N(CC(N)=O)[C@@H](C)c1ccc(Br)cc1)[C@@H](C)c1ccccc1)[C@@H](C)c1ccc(Br)cc1)[C@@H](C)c1ccccc1` [TM10] (H-[N(tridecyl)Gly][Nlys][Nspe][Nspe(4-Br)][Nlys][Nspe][Nspe(4-Br)]-NH2) gave an IC50 in data set [1] of 1540 nM. Further, in data set [2], the “Effect … (number, size, count)” value is “reduction in number and size of amastigotes; also recorded: significantly reduced their count”; the “Effect on intracellular amastigotes” value is on record as “***”.

(Values after paper PMC9989931, “Membrane‐acting biomimetic peptoids against visceral leishmaniasis” (FEBS Open Bio, 2023).)
